Test: Plasma levels and pharmacokinetics of intravenous ITPP

In the case of `O=P1(O)OC2C3OP(=O)(O)OP(=O)(O)OC3C3OP(=O)(O)OP(=O)(O)OC3C2OP(=O)(O)O1` (centres unmarked) [ITPP, Myo-inositol trispyrophosphate], the “ITPP plasma level, Concentration” value (Cohort 6, Patient 18, Day 5, Hour 10) is reported as 60.6 µg/mL, the “ITPP plasma level, Concentration” value (Cohort 6, Patient 19, Day 1, Hour 0) is reported as 0 µg/mL and the “ITPP plasma level, Concentration” value (Cohort 6, Patient 19, Day 1, Hour 3) is reported as 392 µg/mL. The “ITPP plasma level, Concentration” value (Cohort 6, Patient 19, Day 1, Hour 6) was 294 µg/mL, the “ITPP plasma level, Concentration” value (Cohort 6, Patient 19, Day 1, Hour 8.5) was 219 µg/mL and the “ITPP plasma level, Concentration” value (Cohort 6, Patient 19, Day 1, Hour 9) was 185 µg/mL. For the same molecule, the “ITPP plasma level, Concentration” value (Cohort 6, Patient 19, Day 1, Hour 10) was 154 µg/mL, the “ITPP plasma level, Concentration” value (Cohort 6, Patient 19, Day 5, Hour 0) was 0 µg/mL and the “ITPP plasma level, Concentration” value (Cohort 6, Patient 19, Day 5, Hour 3) was 287 µg/mL. For the same molecule, the “ITPP plasma level, Concentration” value (Cohort 6, Patient 19, Day 5, Hour 6) was 329 µg/mL, the “ITPP plasma level, Concentration” value (Cohort 6, Patient 19, Day 5, Hour 8.5) was 265 µg/mL and the “ITPP plasma level, Concentration” value (Cohort 6, Patient 19, Day 5, Hour 9) was 244 µg/mL. The “ITPP plasma level, Concentration” value (Cohort 6, Patient 19, Day 5, Hour 10) was 216 µg/mL, the “ITPP plasma level, Concentration” value (Cohort 6, Patient 20, Day 1, Hour 0) was 0 µg/mL and the “ITPP plasma level, Concentration” value (Cohort 6, Patient 20, Day 1, Hour 3) was 279 µg/mL. The “ITPP plasma level, Concentration” value (Cohort 6, Patient 20, Day 1, Hour 6) was 307 µg/mL, the “ITPP plasma level, Concentration” value (Cohort 6, Patient 20, Day 1, Hour 8.5) was 282 µg/mL and the “ITPP plasma level, Concentration” value (Cohort 6, Patient 20, Day 1, Hour 9) was 396 µg/mL. For the same molecule, the “ITPP plasma level, Concentration” value (Cohort 6, Patient 20, Day 1, Hour 10) was 396 µg/mL, the “ITPP plasma level, Concentration” value (Cohort 6, Patient 20, Day 5, Hour 0) was 0 µg/mL and the “ITPP plasma level, Concentration” value (Cohort 6, Patient 20, Day 5, Hour 3) was 411 µg/mL. For the same molecule, the “ITPP plasma level, Concentration” value (Cohort 6, Patient 20, Day 5, Hour 6) was 595 µg/mL, the “ITPP plasma level, Concentration” value (Cohort 6, Patient 20, Day 5, Hour 8.5) was 466 µg/mL and the “ITPP plasma level, Concentration” value (Cohort 6, Patient 20, Day 5, Hour 9) was 301 µg/mL. The “ITPP plasma level, Concentration” value (Cohort 6, Patient 20, Day 5, Hour 10) was 279 µg/mL, the “ITPP plasma level, Concentration” value (Cohort 6, Patient 21, Day 1, Hour 0) was 0 µg/mL and the “ITPP plasma level, Concentration” value (Cohort 6, Patient 21, Day 1, Hour 3) was 249 µg/mL. The “ITPP plasma level, Concentration” value (Cohort 6, Patient 21, Day 1, Hour 6) was 325 µg/mL, the “ITPP plasma level, Concentration” value (Cohort 6, Patient 21, Day 1, Hour 8.5) was 281 µg/mL and the “ITPP plasma level, Concentration” value (Cohort 6, Patient 21, Day 1, Hour 9) was 241 µg/mL. For the same molecule, the “ITPP plasma level, Concentration” value (Cohort 6, Patient 21, Day 1, Hour 10) was 172 µg/mL, the “ITPP plasma level, Concentration” value (Cohort 6, Patient 21, Day 5, Hour 0) was 0 µg/mL and the “ITPP plasma level, Concentration” value (Cohort 6, Patient 21, Day 5, Hour 3) was 350 µg/mL. The “ITPP plasma level, Concentration” value (Cohort 6, Patient 21, Day 5, Hour 6) was 204 µg/mL, the “ITPP plasma level, Concentration” value (Cohort 6, Patient 21, Day 5, Hour 8.5) was 217 µg/mL and the “ITPP plasma level, Concentration” value (Cohort 6, Patient 21, Day 5, Hour 9) was 184 µg/mL. The “ITPP plasma level, Concentration” value (Cohort 6, Patient 21, Day 5, Hour 10) was 125 µg/mL, the “ITPP plasma level, Concentration” value (Cohort 7, Patient 22, Day 1, Hour 0) was 0 µg/mL and the “ITPP plasma level, Concentration” value (Cohort 7, Patient 22, Day 1, Hour 3) was 280 µg/mL. The “ITPP plasma level, Concentration” value (Cohort 7, Patient 22, Day 1, Hour 6) was 384 µg/mL, the “ITPP plasma level, Concentration” value (Cohort 7, Patient 22, Day 1, Hour 8.5) was 281 µg/mL and the “ITPP plasma level, Concentration” value (Cohort 7, Patient 22, Day 1, Hour 9) was 215 µg/mL. The “ITPP plasma level, Concentration” value (Cohort 7, Patient 22, Day 1, Hour 10) was 152 µg/mL, the “ITPP plasma level, Concentration” value (Cohort 7, Patient 22, Day 5, Hour 0) was 0 µg/mL and the “ITPP plasma level, Concentration” value (Cohort 7, Patient 22, Day 5, Hour 3) was 257 µg/mL. The “ITPP plasma level, Concentration” value (Cohort 7, Patient 22, Day 5, Hour 6) was 351 µg/mL, the “ITPP plasma level, Concentration” value (Cohort 7, Patient 22, Day 5, Hour 8.5) was 319 µg/mL and the “ITPP plasma level, Concentration” value (Cohort 7, Patient 22, Day 5, Hour 9) was 302 µg/mL. The “ITPP plasma level, Concentration” value (Cohort 7, Patient 22, Day 5, Hour 10) was 203 µg/mL, the “ITPP plasma level, Concentration” value (Cohort 7, Patient 23, Day 1, Hour 0) was 0 µg/mL and the “ITPP plasma level, Concentration” value (Cohort 7, Patient 23, Day 1, Hour 3) was 286 µg/mL. For the same molecule, the “ITPP plasma level, Concentration” value (Cohort 7, Patient 23, Day 1, Hour 6) was 329 µg/mL, the “ITPP plasma level, Concentration” value (Cohort 7, Patient 23, Day 1, Hour 8.5) was 316 µg/mL and the “ITPP plasma level, Concentration” value (Cohort 7, Patient 23, Day 1, Hour 9) was 178 µg/mL. For the same molecule, the “ITPP plasma level, Concentration” value (Cohort 7, Patient 23, Day 1, Hour 10) was 119 µg/mL, the “ITPP plasma level, Concentration” value (Cohort 7, Patient 23, Day 5, Hour 0) was 0 µg/mL and the “ITPP plasma level, Concentration” value (Cohort 7, Patient 23, Day 5, Hour 3) was 282 µg/mL. For the same molecule, the “ITPP plasma level, Concentration” value (Cohort 7, Patient 23, Day 5, Hour 6) was 478 µg/mL, the “ITPP plasma level, Concentration” value (Cohort 7, Patient 23, Day 5, Hour 8.5) was 418 µg/mL and the “ITPP plasma level, Concentration” value (Cohort 7, Patient 23, Day 5, Hour 9) was 188 µg/mL. The “ITPP plasma level, Concentration” value (Cohort 7, Patient 23, Day 5, Hour 10) was 185 µg/mL, the “ITPP plasma level, Concentration” value (Cohort 7, Patient 24, Day 1, Hour 0) was 0 µg/mL and the “ITPP plasma level, Concentration” value (Cohort 7, Patient 24, Day 1, Hour 3) was 278 µg/mL. For the same molecule, the “ITPP plasma level, Concentration” value (Cohort 7, Patient 24, Day 1, Hour 6) was 230 µg/mL, the “ITPP plasma level, Concentration” value (Cohort 7, Patient 24, Day 1, Hour 8.5) was 226 µg/mL and the “ITPP plasma level, Concentration” value (Cohort 7, Patient 24, Day 1, Hour 9) was 152 µg/mL. The “ITPP plasma level, Concentration” value (Cohort 7, Patient 24, Day 1, Hour 10) was 103 µg/mL, the “ITPP plasma level, Concentration” value (Cohort 7, Patient 24, Day 2, Hour 0) was 0 µg/mL and the “ITPP plasma level, Concentration” value (Cohort 7, Patient 24, Day 2, Hour 9) was 143 µg/mL. The “ITPP plasma level, Concentration” value (Cohort 7, Patient 24, Day 3, Hour 0) was 0 µg/mL, the “ITPP plasma level, Concentration” value (Cohort 7, Patient 24, Day 3, Hour 9) was 237 µg/mL and the “ITPP plasma level, Concentration” value (Cohort 7, Patient 24, Day 4, Hour 0) was 0 µg/mL. For the same molecule, the “ITPP plasma level, Concentration” value (Cohort 7, Patient 24, Day 4, Hour 9) was 199 µg/mL, the “ITPP plasma level, Concentration” value (Cohort 7, Patient 24, Day 5, Hour 0) was 0 µg/mL and the “ITPP plasma level, Concentration” value (Cohort 7, Patient 24, Day 5, Hour 3) was 299 µg/mL. The “ITPP plasma level, Concentration” value (Cohort 7, Patient 24, Day 5, Hour 6) was 358 µg/mL, the “ITPP plasma level, Concentration” value (Cohort 7, Patient 24, Day 5, Hour 8.5) was 245 µg/mL and the “ITPP plasma level, Concentration” value (Cohort 7, Patient 24, Day 5, Hour 9) was 200 µg/mL. The “ITPP plasma level, Concentration” value (Cohort 7, Patient 24, Day 5, Hour 10) was 141 µg/mL, the “ITPP plasma level, Concentration” value (Cohort 7, Patient 24, Day 6, Hour 0) was 0 µg/mL and the “ITPP plasma level, Concentration” value (Cohort 7, Patient 24, Day 6, Hour 9) was 200 µg/mL. The “ITPP plasma level, Concentration” value (Cohort 7, Patient 24, Day 7, Hour 0) was 0 µg/mL, the “ITPP plasma level, Concentration” value (Cohort 7, Patient 24, Day 7, Hour 9) was 208 µg/mL and the “ITPP plasma level, Concentration” value (Cohort 7, Patient 24, Day 8, Hour 0) was 0 µg/mL. For the same molecule, the “ITPP plasma level, Concentration” value (Cohort 7, Patient 24, Day 8, Hour 9) was 181 µg/mL, the “ITPP plasma level, Concentration” value (Cohort 7, Patient 24, Day 9, Hour 0) was 0 µg/mL and the “ITPP plasma level, Concentration” value (Cohort 7, Patient 24, Day 9, Hour 3) was 247 µg/mL. The “ITPP plasma level, Concentration” value (Cohort 7, Patient 24, Day 9, Hour 6) was 345 µg/mL, the “ITPP plasma level, Concentration” value (Cohort 7, Patient 24, Day 9, Hour 8.5) was 217 µg/mL and the “ITPP plasma level, Concentration” value (Cohort 7, Patient 24, Day 9, Hour 9) was 199 µg/mL. For the same molecule, the “ITPP plasma level, Concentration” value (Cohort 7, Patient 24, Day 9, Hour 10) was 143 µg/mL, the “ITPP plasma level, Concentration” value (Cohort 8, Patient 25, Day 1, Hour 0) was 0 µg/mL and the “ITPP plasma level, Concentration” value (Cohort 8, Patient 25, Day 1, Hour 3) was 388 µg/mL. For the same molecule, the “ITPP plasma level, Concentration” value (Cohort 8, Patient 25, Day 1, Hour 6) was 497 µg/mL, the “ITPP plasma level, Concentration” value (Cohort 8, Patient 25, Day 1, Hour 8.5) was 505 µg/mL and the “ITPP plasma level, Concentration” value (Cohort 8, Patient 25, Day 1, Hour 9) was 317 µg/mL. The “ITPP plasma level, Concentration” value (Cohort 8, Patient 25, Day 1, Hour 10) was 194 µg/mL, the “ITPP plasma level, Concentration” value (Cohort 8, Patient 25, Day 5, Hour 0) was 0 µg/mL and the “ITPP plasma level, Concentration” value (Cohort 8, Patient 25, Day 5, Hour 3) was 354 µg/mL. The “ITPP plasma level, Concentration” value (Cohort 8, Patient 25, Day 5, Hour 6) was 495 µg/mL, the AUC (cohort 1, 1866 mg/m2) was 350.7 µg·h/mL and the AUMC (cohort 1, 1866 mg/m2) was 1994.7 h2*mg/L. The CL (cohort 1, 1866 mg/m2) was 4.8 L/h, the Clast (cohort 1, 1866 mg/m2) was 19200 ng/mL and the Cmax (cohort 1, 1866 mg/m2) was 47200 ng/mL. For the same molecule, the Cmin (cohort 1, 1866 mg/m2) was 0 ng/mL, the “Elimination rate λz” value (cohort 1, 1866 mg/m2) was 0.5 h⁻¹ and the “Half life/T0.5” value (cohort 1, 1866 mg/m2) was 1.3 h. The MRT (cohort 1, 1866 mg/m2) was 1.7 h and the Tlast (cohort 1, 1866 mg/m2) was 10.0 h.
